US20250092086A1, “CELASTROL SALTS, CRYSTALLINE FORMS, AND USES THEREOF” (ERX Pharmaceuticals Inc., priority 2022, published 2025)
Values after ≈ are worked out from the molar mass of the structure shown. “Also recorded” adds a separate entry of the source. Like-named read-outs stand apart in the source and are kept apart here.

Key:
[1] = XRPD under temperature and relative humidity; assay type: physicochemical; conditions: for XRPD under temperature: impact / new crystalline phase: 25 to 100° C., RH set at 30%; for XRPD under relative humidity: impact / new crystalline phase: RH 10 to 80-90% at 40° C.; for Physical stability under the conditions tested (temperature and RH): XRPD, 25-100° C. and 10-90% RH at 40° C.
Experimental: Method 1: influence of temperature at ambient RH. RH was set at 30% in order to simulate a RH near from the ambient RH, and the temperature studied were 25-[…]-100° C.
Method 2: influence on RH at 40° C. The RH studied was at 10-30-80%.
These experiments studied the influence of temperature at ambient RH. RH was wet at 30% in order to simulate a RH near from the ambient RH, and the temperatures studied were 25-50-100° C.
These experiments studied the influence on RH at 40° C. The RH studied were 10-30-88%.
Using Method 1, the influence of temperature at ambient RH was studied. RH was set at 30% in order to simulate a RH near from the ambient RH, and the temperatures studied were 25-50-100° C. FIG. 24 provides the XRPD pattern representing the influence of temperature on Compound 1 Form I.
Using Method 2, the influence on RH at 40° C. was studied. The RH studied were 10-30-90%.
Using Method 1, the influence of temperature at ambient RH was studied. RH was set at 30% in order to simulate a RH near from the ambient RH. Temperature studied: 25-50-100° C.
Using Method 2, the influence on RH at 40° C. was studied at 10-30-90%.

[2] = Hygroscopicity (DVS), water sorption/desorption at 37° C.; assay type: physicochemical; conditions: for Hysteresis observed with the final mass at 50% RH / Mass decrease as the RH was lowered to 0% / Mass increase as the RH was increased to 95% / Water uptake, water sorption/desorption isotherms / Hysteresis with the final mass at 50% RH: DVS, 37° C.; for DVS (hygroscopicity): water sorption/desorption isotherms at 37° C., 0-95% RH
Experimental: The hygroscopicity experiments were carried out with a DVS Intrinsic from S.M.S. This technique is designed to accurately measure a sample's change in mass as it sorbs precisely controlled concentrations of water vapors in an air carrier gas. The method used for DVS experiments (at 37° C.) is summarized below. • Equilibrating 10 min at 50% RH • Decreasing to 0% RH in 60 min • Equilibrating 10 min at 0% RH • Increasing to 95% RH in 280 min • Equilibrating 10 min at 95% RH • Decreasing to 50% RH in 100 min • Equilibrating 20 min at 50% RH
(§1) The hygroscopic experiments were carried out with a DVS Intrinsic from S.M.S. This technique is designed to accurately measure a sample's change in mass as it sorbs precisely controlled concentrations of water vapors in an air carrier gas. All the methods used for DVS experiments are summarized below. It should be noticed that the temperature and relative humidity (RH) are pre-set according to the initial temperature and RH.
• Equilibrating 120 min at 50% RH • Decreasing to 0% RH in 60 min • Equilibrating 150 min at 0% RH • Increasing to 95% RH in 200 min • Equilibrating 360 min at 95% RH • Decreasing to 50% RH in 100 min • Equilibrating 150 min at 50% RH
as §1, with “hygroscopicity” for “hygroscopic”, “below, and it” for “below. It”
as §1, with “hygroscopicity” for “hygroscopic”

[3] = Solubility study of Compound I Form I in various solvents and temperatures; assay type: physicochemical
Experimental: The solubility of Compound 1 Form I was assessed in order to identify potential crystallization media. Compound 1 Form I was found very soluble in dichoromethane even at low temperature (10° C.).

[4] = counter-ion, cited from earlier work; for pKa (B): basic function
[5] = Solubility in water at 37° C.; assay type: physicochemical
Excerpt: This compound can be considered as very slightly soluble (<1 g/L).

CC1=C(O)C(=O)C=C2C1=CC=C1[C@@]2(C)CC[C@@]2(C)[C@@H]3C[C@](C)(C(=O)O)CC[C@]3(C)CC[C@]12C [Compound 1 Form II, 3-hydroxy-9β,13α-dimethyl-2-oxo-24,25,26-trinoroleana-1(10),3,5,7-tetraen-29-oic acid]
XRPD under temperature: impact / new crystalline phase [1]: No impact
XRPD under temperature: impact / new crystalline phase ([1]; listed as FII): =>No new crystalline
XRPD under relative humidity: impact / new crystalline phase [1]: No impact
XRPD under relative humidity: impact / new crystalline phase ([1]; listed as FII): =>No new crystalline
Physical stability under the conditions tested (temperature and RH) [1]: good stability
Hysteresis observed with the final mass at 50% RH [2]: No hysteresis
Mass decrease as the RH was lowered to 0% [2]: ~0.08 % w/w
Mass increase as the RH was increased to 95% [2]: about 0.13 % w/w
Water uptake, water sorption/desorption isotherms [2]: < 0.2 % w/w
DVS (hygroscopicity) [2]: non-hygroscopic
DVS (hygroscopicity) ([2]; listed as FII): Not hygroscopic

CC1=C(O)C(=O)C=C2C1=CC=C1[C@@]2(C)CC[C@@]2(C)[C@@H]3C[C@](C)(C(=O)O)CC[C@]3(C)CC[C@]12C [Compound 1 Form I, 3-hydroxy-9β,13α-dimethyl-2-oxo-24,25,26-trinoroleana-1(10),3,5,7-tetraen-29-oic acid]
XRPD under temperature: impact / new crystalline phase [1]: No impact
XRPD under temperature: impact / new crystalline phase ([1]; listed as Compound I Form I): no new crystalline phase until 100 °C
XRPD under temperature: impact / new crystalline phase ([1]; listed as FI): =>No new crystalline
XRPD under relative humidity: impact / new crystalline phase [1]: No impact
XRPD under relative humidity: impact / new crystalline phase ([1]; listed as Compound I Form I): no new crystalline phase from 10 to 90% RH
XRPD under relative humidity: impact / new crystalline phase ([1]; listed as FI): =>No new crystalline
Physical stability under the conditions tested (temperature and RH) [1]: good stability
solubility ([3]; CH2Cl2/EtOH 20/80, organic solvent or mixture, CH2Cl2-2/EtOH 20/80, 40° C.): 31 to 40 mg/mL (≈ 68.8 to 88.8 mM)
solubility ([3]; aqueous with cosolvent or surfactant or cyclodextrin, MeOH/Water 67/33/V, 10° C.): < 2 mg/mL
solubility ([3]; aqueous with cosolvent or surfactant or cyclodextrin, Water/EtOH 50/50, 10° C.): < 11 mg/mL
solubility ([3]; aqueous with cosolvent or surfactant or cyclodextrin, Water/EtOH 50/50, 25° C.): < 11 mg/mL
Solubility in dichoromethane ([3]; dichoromethane, even at low temperature (10° C.)): very soluble
Solubility in dichoromethane/ethanol 50:50 (V/V) at high temperature ([3]; dichoromethane/ethanol 50:50 (V/V), high temperature): relatively good solubility
Solubility in dichoromethane/ethanol 50:50 (V/V) at low temperature ([3]; dichoromethane/ethanol 50:50 (V/V), low temperature): low solubility
solubility ([3]; methanol, organic solvent or mixture, MeOH, 10° C.): 8 to 11 mg/mL (≈ 17.8 to 24.4 mM)
solubility ([3]; methanol, organic solvent or mixture, MeOH, 50° C.): ~36 mg/mL (≈ 79.9 mM)
solubility ([3]; organic solvent or mixture, CH2Cl2, 25° C.): > 120 mg/mL
solubility ([3]; organic solvent or mixture, CH2Cl2/EtOH 10/90, 10° C.): 11 to 15 mg/mL (≈ 24.4 to 33.3 mM)
solubility ([3]; organic solvent or mixture, CH2Cl2/EtOH 10/90, 40° C.): < 25 mg/mL
solubility ([3]; organic solvent or mixture, CH2Cl2/EtOH 30/70, 10° C.): 25 to 45 mg/mL (≈ 55.5 to 99.9 mM)
solubility ([3]; organic solvent or mixture, CH2Cl2/EtOH 50/50, 10° C.): > 40 mg/mL
solubility ([3]; organic solvent or mixture, CH2Cl2/EtOH 70/30, 10° C.): > 40 mg/mL
solubility ([3]; organic solvent or mixture, CH2Cl2/EtOH 90/10, 10° C.): > 40 mg/mL
solubility ([3]; organic solvent or mixture, Ethanol, 25° C.): 9 to 14 mg/mL (≈ 20 to 31.1 mM)
solubility ([3]; organic solvent or mixture, Ethyl acetate, 10° C.): 20 to 40 mg/mL (≈ 44.4 to 88.8 mM)
solubility ([3]; organic solvent or mixture, Propan-2-ol, 10° C.): < 25 mg/mL
solubility ([3]; organic solvent or mixture, Propan-2-ol, 50° C.): 25 to 40 mg/mL (≈ 55.5 to 88.8 mM)
Hysteresis observed with the final mass at 50% RH [2]: No hysteresis; also recorded: slight hysteresis
Water uptake, water sorption/desorption isotherms [2]: < 0.2 % w/w
DVS (hygroscopicity) [2]: non hygroscopic; also recorded: non-hygroscopic
DVS (hygroscopicity) ([2]; listed as Compound I Form I): Non-hygroscopic
DVS (hygroscopicity) ([2]; listed as FI): Not hygroscopic

NC(CO)(CO)CO [trometamol, tris(hydroxymethyl)aminomethane]
pKa (B) [4]: 8.2

CC1=C(O)C(=O)C=C2C1=CC=C1[C@@]2(C)CC[C@@]2(C)[C@@H]3C[C@](C)(C(=O)O)CC[C@]3(C)CC[C@]12C [Compound 1, (2R,4aS,6aS,12bR,14aS,14bR)-10-hydroxy-2,4a,6a,9,12b,14a-hexamethyl-11-oxo-1,2,3,4,4a,5,6,6a,11,12b,13,14,14a,14b-tetradecahydropicene-2-carboxylic acid]
XRPD under temperature: impact / new crystalline phase ([1]; listed as Free compound): =>No new crystalline phase until
XRPD under temperature: impact / new crystalline phase ([1]; listed as free Celastrol): no new crystalline phase until 100 °C
XRPD under temperature: impact / new crystalline phase ([1]; listed as free compound): No impact
XRPD under relative humidity: impact / new crystalline phase ([1]; listed as Free compound): =>No new crystalline phase from
XRPD under relative humidity: impact / new crystalline phase ([1]; listed as free Celastrol): no new crystalline phase from 10 to 90% RH
XRPD under relative humidity: impact / new crystalline phase ([1]; listed as free compound): physically stable under relative humidity; also recorded: No impact
Physical stability under the conditions tested (temperature and RH) ([1]; listed as free compound): physically stable
Solubility in water at 37° C. [5]: below 1 g/L
solubility ([5]; 37 °C): < 1 mg/mL
Solubility in water at 37° C. ([5]; listed as Free compound): (s < 1 g/L)
Hysteresis with the final mass at 50% RH [2]: ~0.1 wt-%
Mass decrease as the RH was lowered to 0% [2]: ~0.1 % w/w
Mass increase as the RH was increased to 95% [2]: ~0.2 % w/w
Water uptake, water sorption/desorption isotherms [2]: < 0.2 wt-%
DVS (hygroscopicity) [2]: non-hygroscopic
DVS (hygroscopicity) ([2]; listed as Free compound): Non hygroscopic
DVS (hygroscopicity) ([2]; listed as free Celastrol): Non-hygroscopic
DVS (hygroscopicity) ([2]; listed as free compound): non hygroscopic

NCCCC[C@H](N)C(=O)O [L-Lysine]
pKa (A) ([4]; acid function): 2.16
pKa (B) [4]: 9.18

CC1=C(O)C(=O)C=C2C1=CC=C1[C@@]2(C)CC[C@@]2(C)[C@@H]3C[C@](C)(C(=O)O)CC[C@]3(C)CC[C@]12C [Compound 2]
XRPD under temperature: impact / new crystalline phase [1]: No impact of temperature
XRPD under temperature: impact / new crystalline phase ([1]; listed as Trometamol salt): =>No new crystalline phase until 100 °C
XRPD under relative humidity: impact / new crystalline phase [1]: formation of a new crystalline pattern
XRPD under relative humidity: impact / new crystalline phase ([1]; listed as Trometamol salt): less stable physically under relative humidity; also recorded: =>New crystaline phase from 80% RH
Solubility in water at 37° C. [5]: < 1.5 mg/mL
Solubility in water at 37° C. ([5]; listed as Trometamol salt): (s < 1.5 g/L)
Hysteresis with the final mass at 50% RH [2]: ~3 % w/w
Mass decrease as the RH was lowered to 0% [2]: ~3.8 % w/w
Mass increase as the RH was increased to 95% [2]: 11 % w/w
Water uptake, water sorption/desorption isotherms [2]: 2 ˜15 % w/w
DVS (hygroscopicity) [2]: hygropscopic
DVS (hygroscopicity) ([2]; listed as Trometamol salt): Hygroscopic
